Experimental data published in US20060057559A1, “High-throughput cell migration screening assay” (Rigel Pharmaceuticals, Inc., priority 2004, published 2006).
“Also recorded” adds a separate entry of the source. Structures can show the parent of a compound that is named as a salt.

Legend:
EDG3 = molecular target: T1, EDG3 (Homo sapiens, UniProt Q99500); assay: Migration assay employing EDG3 as a migration molecule (T lymphoid cells overexpressing EDG3 migrating toward S1P, 96-well, CyQuant GR fluorescence); type: cell-based
T1 construct: expressed in transfected cells; host or cells: T lymphoid cell line (Jurkat, EDG3 #1 clone), pNIGEDG3 vector, constitutive expression
Procedure: (§1) Both cell lines were used to optimize assay parameters in order to maximize accuracy and throughput in an automated 96-well format. Compounds were added together with S1P in bottom receiver plate; lipid starved cells were placed in the upper filter plate. The T cell migration may be finished in 2 to 4 hours. The cells which migrated to the receiver plate were stained with a fluorescence dye (CyQuant GR™) and detected by a fluorescence plate reader.
On day one, EDG3 expressing cells were grown at 0.8 millions/ml in RPMI 1640 containing 10% lipid-free serum (Charcoal-Dextran-Stripped Fetal Bovine Serum, Cat# 100-502 (Gemini Bioproducts™)) for 24 hours. EDG3 cells are maintained below 3 million/ml at all times. On the next day, cells were spun down, washed once with serum-free medium and re-suspended in RPMI 1640 containing 0.1% BSA (fat-free, cell culture tested) (Cat# A8806 (SIGMA ALDRICH FLUKA CHEMICALS™)) at a density of 8×10^6 per ml. 170 μl RPMI 1640 (0.1% BSA) containing 60 nM S1P (Cat# SL-140 (BiOMOl™)) and/or desired drugs were added to the receiver plate of […] Millipore Multiscreen MIC plates (Cat# MAMI C3S 10, 3 um pore size (Millipore™)) and the filter plates were carefully placed over the receiver plate. […] After 30 min agitating at RT, the plate was read in a fluorescence plate reader using 480/520 nm filter set.

EDG1 = molecular target: T2, EDG1 (Homo sapiens, UniProt P21453); assay: Migration assay employing EDG1 as a migration molecule (T lymphoid cells overexpressing EDG1 migrating toward S1P, 96-well, CyQuant GR fluorescence); type: cell-based; details: migration in response to S1P, hydrochloride
T2 construct: expressed in transfected cells; host or cells: T lymphoid cell line (Jurkat, EDG1 #15 clone), retroviral TIM EDG1 vector, tetracycline-regulated
Procedure: as §1
On day one, EDG1 expressing cells were grown at 0.4 millions/ml in RPMI 1640 containing 10% lipid-free serum (Charcoal-Dextran-Stripped Fetal Bovine Serum, Cat# 100-502 (Gemini Bioproducts™)) for 24 hours. EDG1 cells are maintained below 1 million/ml at all times. On the next day, cells were spun down, washed once with serum-free medium and re-suspended in RPMI 1640 containing 0.1% BSA (fat-free, cell culture tested) (Cat# A8806 (SIGMA ALDRICH FLUKA CHEMICALS™)) at a density of 6×10^6 per ml. 170 μl RPMI 1640 (0.1% BSA) containing 20 nM S1P (Cat# SL-140 (BioMol™)) and/or desired drugs were added to the receiver plate of […] Millipore Multiscreen MIC™ plates (Cat# MAMI C3S 10, 3 um pore size (Millipore™)) and the filter plates were carefully placed over the receiver plate. […] After 30 min agitating at RT, the plate was read in a fluorescence plate reader using 480/520 nm filter set.

T1 sequence (Q99500 whole entry): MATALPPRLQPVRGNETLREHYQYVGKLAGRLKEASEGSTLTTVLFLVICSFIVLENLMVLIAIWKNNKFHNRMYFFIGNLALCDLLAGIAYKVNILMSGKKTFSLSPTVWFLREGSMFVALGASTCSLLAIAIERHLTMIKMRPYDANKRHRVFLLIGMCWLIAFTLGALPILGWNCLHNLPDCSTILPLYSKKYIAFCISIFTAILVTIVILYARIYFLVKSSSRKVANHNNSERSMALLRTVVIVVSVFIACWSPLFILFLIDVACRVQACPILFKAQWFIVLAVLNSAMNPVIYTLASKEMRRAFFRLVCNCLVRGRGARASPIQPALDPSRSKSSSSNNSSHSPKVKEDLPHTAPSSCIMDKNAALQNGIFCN
T2 sequence (P21453 whole entry): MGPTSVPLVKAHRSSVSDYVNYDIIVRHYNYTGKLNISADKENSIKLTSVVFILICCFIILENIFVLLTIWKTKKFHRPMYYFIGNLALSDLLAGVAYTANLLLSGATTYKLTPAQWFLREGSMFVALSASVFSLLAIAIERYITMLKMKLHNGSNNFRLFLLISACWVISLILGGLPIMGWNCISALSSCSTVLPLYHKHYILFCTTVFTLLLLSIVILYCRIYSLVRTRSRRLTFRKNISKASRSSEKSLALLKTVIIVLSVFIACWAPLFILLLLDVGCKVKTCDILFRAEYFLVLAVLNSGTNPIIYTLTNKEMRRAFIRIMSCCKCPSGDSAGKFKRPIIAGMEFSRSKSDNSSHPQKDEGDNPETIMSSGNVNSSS

Row | Structure (SMILES) | differential inhibition of EDG1 and EDG3 migration (EDG3; EDG1 versus EDG3 clones, FIG. 10B) | inhibition of migration of EDG3 #1 clone (EDG3; EDG3-overexpressing T lymphoid cells, migration in response to S1P) | inhibition of migration of EDG1 #15 clone (EDG1)
1 | Cc1ccc(C(=O)Nc2ccc(S(=O)(=O)O)c3cc(S(=O)(=O)O)cc(S(=O)(=O)O)c23)cc1NC(=O)c1cccc(NC(=O)Nc2cccc(C(=O)Nc3cc(C(=O)Nc4ccc(S(=O)(=O)O)c5cc(S(=O)(=O)O)cc(S(=O)(=O)O)c45)ccc3C)c2)c1 [suramin] | differential inhibition of EDG1 and EDG3 migration | specifically inhibit; also recorded: inhibition of EDG3 #1 clone migration | –
2 | CCCCCCCCc1ccc(CCC(N)(CO)CO)cc1 [FTY720, 2-amino-2(2-[4-octylphenylethyl)-1,3-propanediol hydrochloride] | – | – | inhibition of migration; also recorded: specifically inhibit; also recorded: inhibits the migration of EDG1#15 clone
